# Reference: patent US9139546B2, “Tri-aryl/heteroaromatic cannabinoids and use thereof” (priority 2007, dated 2015)
# Where two headings read alike, the source gives them in different places.
# What was measured:
# human CB2 receptor = human CB2 receptor (Homo sapiens (Human), UniProt P34972); test: Receptor binding assay, CB2 ([3H]CP 55,940 displacement); details: for CB1/CB2: ratio of Ki CB-1 to Ki CB-2; for Ki: as repeated in the anti-inflammatory table, read-out: CB-2 Ki
# Protocol: (§1) The assays were carried out in 96 well plates obtained from Millipore, Inc. fitted with glass fiber filters (hydrophilic, GFC filters) having a pore size of 1.2μ. The filters were soaked with 0.05% polyethyleneimine solution and washed 5× with deionized water prior to carrying out the assays. The filtrations were carried out on a 96 well vacuum manifold (Millipore Inc.), the filters punched out with a pipette tip directly into scintillation vials at the end of the experiment and vials filled with 5 ml scintillation cocktail Ecolite (+) (Fisher Scientific). Counting was carried out on a Beckmann Scintillation Counter model LS6500. Drug solutions were prepared in DMSO and the radioligand was dissolved in ethanol.
# (§2) 50 mM TRIS-HCl, 5 mM MgCl2, 2.5 mM EDTA, 0.5 mg/ml fatty acid free bovine serum albumin, pH 7.4.
# (§3) The membranes were filtered and the filters washed 7× with 0.2 ml ice-cold incubation buffer and allowed to air dry under vacuum.
# (§4) Final data are presented as Ki±S.E.M. of n≧3 experiments.
# [1] = test system: DMS-135 lung cancer cells; test: Anti-cancer activity, WST-8 cell viability, DMS-135; type: cell-based; details: Homo sapiens
# Protocol: (§5) A representative group of compounds (shown below) was tested for anti-cancer activity against human lung (DMS-135 and H69AR), prostate (DU-145), colorectal (HCT-15), and pancreatic (BxPC-3) cancer cell lines using the methodology described below, providing results shown in Table 3.
# (§6) Human cancer cells DU-145, DMS-135, H69AR, HCT-15, and BxPC-3 (American Type Culture Collection, ATCC) were cultured in supplemented media according to the recommendations of the supplier. Cells lines were plated in 96-well flat-bottom plates at 70% confluency in a 100 μl total volume of supplemented media as indicated, and incubated overnight at 37° C. to allow for adherence. The cultures were inoculated with escalating amounts of drug and cell death was analyzed at 18 hours, using the BioTek Synergy 2 Multidetection Microplate Reader. The percentage of viable cells present in the culture at each time point was calculated by comparing the absorbance value at 450 nm from the WST-8 assay (Pojindo Molecular Technologies) for each condition with untreated control cells.
# [2] = test system: HCT-15 colorectal cancer cells; test: Anti-cancer activity, WST-8 cell viability, HCT-15; type: cell-based; details: Homo sapiens
# Protocol: as §5, §6
# [3] = test system: DU-145 prostate cancer cells; test: Anti-cancer activity, WST-8 cell viability, DU-145; type: cell-based; details: Homo sapiens
# Protocol: as §5, §6
# H69AR lung cancer cells = test: Anti-cancer activity, WST-8 cell viability, H69AR; type: cell-based; details: Homo sapiens, 18 h, read-out: H69AR lung EC50 (μM)
# Protocol: as §5, §6
# NF-κB = NF-κB SEAP reporter assay in TNF-α treated A549 cells; type: cell-based; details: Homo sapiens, read-out: NF-κB Reduction; for inhibition at 0.01 µM: 10 nM compound
# Protocol: (§7) Human lung adenocarcinoma cell line A549 (alveolar type II epithelial-like) cells (ATCC, Manassas, Va.) were maintained in growth media consisting of DMEM supplemented with 10% heat-inactivated fetal calf serum, 2 mM L-glutamine, 100 U/ml penicillin, and 100 μg/ml streptomycin.
# The plasmid pNF-κB-SEAP-NPT was kindly provided by Dr. Y. S. Kim of the Seoul National University. This plasmid contains a secreted alkaline phosphatase (SEAP) reporter gene coupled with the κB response element. Upon activation, NF-κB translocates to the nucleus and binds to the κB response element causing transcriptional activation. This activation drives production of the SEAP reporter, which is secreted into the cell culture supernatant where it can be measured. The neomycin phosphotransferase (NPT) region of the plasmid provides resistance to the antibiotic G-418.
# A549 cells were stably transfected with pNF-κB-SEAP-NPT using GeneJammer Transfection Reagent (Stratagene, La Jolla, Calif.) per manufacturer's protocol. G-418 (500 μg/ml) was added 24 hrs after transfection to select for stable transfection of NF-κB. Resistant colonies were selected and maintained in growth media supplemented with 500 μg/ml G-418.
# Previous experiments have shown A549 cells respond to the pro-inflammatory cytokine TNF-α by activation of the pro-inflammatory transcription factor, NF-κB. This effect is dose dependent with the maximum effect seen at 10 ng/mL TNF-α. Compounds with anti-inflammatory activity can be used to inhibit this activation of NF-κB.
# One day prior to treatment, transfected cells were seeded in 24 well culture plates at 6×10^4 cells/well in 1 mL of DMEM containing 1% FCS. On the day of treatment, media was aspirated. Following PBS wash, 1 mL of media containing 1% FCS, 10 ng/mL TNF-α, and varying concentrations of test compounds was added. Cell culture supernatant was collected at 18 hours. SEAP production was measured in 50 μL of supernatant using the Great EscAPe™ chemiluminescence kit (Clontech, Mountain View, Calif.). Briefly, samples were incubated at 65° C. for 30 minutes to inactivate endogenous alkaline phosphate. Following a 5-minute equilibration with assay buffer, chemiluminescent substrate and enhancer was added. Chemiluminescence was measured after 10 minutes. Higher levels of chemiluminescence result from increased SEAP production and correspond to NF-κB activity. Compounds capable of inhibiting NF-κB activation due to TNF-α are determined by a reduction in chemiluminescence values when cells are treated with TNF-α and test compound versus cells treated with TNF-α alone.
# human CB1 receptor = human CB1 receptor (Homo sapiens (Human), UniProt P21554); test: Receptor binding assay, CB1 ([3H]CP 55,940 displacement); details: as repeated in the anti-inflammatory table; read-out: CB-1 Ki
# Chain of human CB1 receptor (P21554 whole entry): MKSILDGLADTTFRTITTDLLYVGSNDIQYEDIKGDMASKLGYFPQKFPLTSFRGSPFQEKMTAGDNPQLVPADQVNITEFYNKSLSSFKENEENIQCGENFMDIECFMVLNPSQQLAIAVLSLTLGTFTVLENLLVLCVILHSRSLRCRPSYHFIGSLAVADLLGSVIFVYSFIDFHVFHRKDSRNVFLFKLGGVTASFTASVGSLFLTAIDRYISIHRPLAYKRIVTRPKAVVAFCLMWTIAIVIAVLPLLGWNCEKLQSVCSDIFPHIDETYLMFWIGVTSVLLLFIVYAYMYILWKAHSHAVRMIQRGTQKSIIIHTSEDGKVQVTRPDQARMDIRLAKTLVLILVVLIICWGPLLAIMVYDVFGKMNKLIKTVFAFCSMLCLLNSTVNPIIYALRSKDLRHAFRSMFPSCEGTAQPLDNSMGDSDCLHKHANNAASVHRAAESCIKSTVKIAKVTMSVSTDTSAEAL
# Protocol: as §1, §2, §3, §4
# IL-6 = IL-6 level in supernatant of TNF-α treated A549 cells (multiplex bead immunoassay); type: cell-based, human; details: A549, 10 ng/mL TNF-α, 18 hours
# Protocol: as §7
# (§8) One day prior to treatment, A549 cells were seeded in 24 well culture plates at 6×10^4 cells/well in 1 mL of DMEM containing 1% FCS. On the day of treatment, media was aspirated. Following PBS wash, 1 mL of media containing 1% FCS, 10 ng/mL TNF-α, and varying concentrations of test compounds was added. Samples were collected at 18 hours and immediately transferred to −80° C. until the day of analysis.
# (§9) Levels of IL-6 and CXCL-8 were measured in cell culture supernatant using the Multiplex Bead Immunoassay Kit (Biosource, Camarillo, Calif.) paired with the Luminex® 200™ System. Standard solutions were prepared by serial dilution in a 50% media, 50% buffer solution so that they were in the same matrix as the samples. Standards and samples were mixed with a solution containing beads coated with capture antibodies specific for IL-6 and CXCL-8. Each capture antibody is bound to a specific bead population with a known internal fluorescence. The Luminex system can differentiate between internal fluorescence of beads allowing detection of multiple analytes in the same well. Following overnight incubation to allow complexation of protein with capture antibodies, wells were washed and beads resuspended in assay buffer. Biotinylated reporter antibodies specific for IL-6 and CXCL-8 were added and incubated for 1.5 hours. Unbound antibodies were removed by washing, and Streptavidin-Phycoerythrin (PE) was added and incubated 30 minutes. Streptavidin binds to biotin on the reporter antibodies. Unbound reagents were removed and samples were analyzed by the Luminex system. This system utilizes a flow cytometry system and lasers capable of exciting the internal dyes of the beads and PE. The machine separates signals from beads with different internal fluorescence and measures fluorescence intensity from PE bound to these beads through protein-antibody interactions. This fluorescence intensity is reported as the median of 100 beads per cytokine in each well. Concentrations were interpolated by fitting fluorescence intensity from unknowns to the standard curves.
# (§10) Cells treated with the pro-inflammatory cytokine TNF-α increase production of IL-6 and CXCL-8 when compared to cells not treated with TNF-α. Cells treated with anti-inflammatory compounds block the inflammatory effect of TNF-α and produce IL-6 and CXCL-8 levels similar to cells that are not treated with TNF-α.
# [4] = test system: BxPC-3 pancreatic cancer cells; test: Anti-cancer activity, WST-8 cell viability, BxPC-3; type: cell-based; details: Homo sapiens, BXPC-3; cell death at 18 hours, WST-8; n.a. = no activity; read-out: BxPC-3 pancreatic EC50
# Protocol: as §5, §6
# CXCL-8 = CXCL-8 level in supernatant of TNF-α treated A549 cells (multiplex bead immunoassay); type: cell-based, human; details: 4 μM compound; A549, 10 ng/mL TNF-α, 18 hours
# Protocol: as §7, §8, §9, §10
# [5] = 18 h, read-out: DMS-135 lung EC50 (μM)
# [6] = DU-145, 18 h, read-out: DU-145 prostate EC50 (μM)
Compound,CB1/CB2 (human CB2 receptor),Ki (human CB1 receptor) [nM],Ki (human CB2 receptor) [nM],also measured
"Cc1cccc(-c2c(O)cc(C(C)(C)c3ccccc3)cc2O)c1 [Compound 40, 3′-Methyl-4-(1-methyl-1-phenyl-ethyl)-biphenyl-2,6-diol]",20.30,,,
COc1cc(C(C)(C)c2ccccc2)cc(O)c1-c1cc(Cl)cc(Cl)c1 [Compound 47],,,,"EC50 [1, 5]: 0.9 µM; EC50 ([2]; HCT-15, 18 h, read-out: HCT-15 colorectal EC50 (μM)): 4.2 µM; EC50 [3, 6]: 1.4 µM; EC50 (H69AR lung cancer cells): 12.2 µM"
"Cc1cccc(-c2ccc(C(=O)c3ccccc3)cc2O)c1 [Compound 25, (2-hydroxy-3′-methylbiphenyl-4-yl)(phenyl)methanone]",2.21,> 1000,454,"inhibition at 0.01 µM (NF-κB; A549, 10 ng/mL TNF-α, 18 hours): 15%"
"Cc1cccc(-c2c(O)cc(C(C)(C)c3cccs3)cc2O)c1 [Compound 43, 3′-methyl-4-(2-(thiophen-2-yl)propan-2-yl)biphenyl-2,6-diol]",0.05,,,
"CC(C)(c1ccccc1)c1cc(O)c(-c2cc(Cl)cc(Cl)c2)c(O)c1 [Compound 41, 3′,5′-dichloro-4-(2-phenylpropan-2-yl)biphenyl-2,6-diol]",87.5,,,"EC50 [1, 5]: 1.5 µM; EC50 [3, 6]: 1.4 µM; EC50 (H69AR lung cancer cells): 1.8 µM"
"O=C(c1cc(O)c(-c2cc(Cl)cc(Cl)c2)c(O)c1)c1cccs1 [Compound 31, (3′,5′-dichloro-2,6-dihydroxybiphenyl-4-yl)(thiophen-2-yl)methanone]",571,> 1000,1.75,"inhibition at 0.01 µM (NF-κB; A549, 10 ng/mL TNF-α, 18 hours): 55%; IL-6 Reduction (IL-6; 10 nM compound): 35%"
"CC(C)(c1ccc(-c2cc(Cl)cc(Cl)c2)c(O)c1)c1cccs1 [Compound 45, 3′,5′-dichloro-4-(2-(thiophen-2-yl)propan-2-yl)biphenyl-2-ol]",0.46,,,
"Cc1cccc(-c2ccc(C(C)(C)c3ccccc3)cc2O)c1 [Compound 39, 3′-methyl-4-(2-phenylpropan-2-yl)biphenyl-2-ol]",8.87,,,
"CC(C)(c1ccccc1)c1ccc(-c2cc(Cl)cc(Cl)c2)c(O)c1 [Compound 42, 3′,5′-dichloro-4-(2-phenylpropan-2-yl)biphenyl-2-ol]",142.1,,,
"CC(C)(c1cc(O)c(-c2cc(Cl)cc(Cl)c2)c(O)c1)c1cccs1 [Compound 44, 3′,5′-dichloro-4-(2-(thiophen-2-yl)propan-2-yl)biphenyl-2,6-diol]",0.41,,,
COc1cc(C(O)c2ccccc2)cc(OC)c1-c1cc(Cl)cc(Cl)c1 (stereo not shown) [Compound 15],602,> 1000,1.66,"EC50 ([1]; cell death at 18 hours, WST-8, n.a. = no activity, read-out: DMS-135 lung EC50): 6.2 µM; inhibition at 0.1 µM (NF-κB; 100 nM compound, A549, 10 ng/mL TNF-α, 18 hours): 30%; EC50 ([2]; HCT-15, cell death at 18 hours, WST-8, n.a. = no activity, read-out: HCT-15 colorectal EC50): 348 µM; EC50 [4]: 11600 nM; IL-6 Reduction (IL-6; 100 nM compound): 55%; EC50 ([3]; DU-145, cell death at 18 hours, WST-8, n.a. = no activity, read-out: DU-145 prostate EC50): 18.4 µM"
"COc1cc(C(=O)c2cccs2)cc(O)c1-c1cc(Cl)cc(Cl)c1 [Compound 30, (3′,5′-dichloro-2-hydroxy-6-methoxybiphenyl-4-yl)(thiophen-2-yl)methanone]",217,503,2.32,"inhibition at 1 µM (NF-κB; A549, 18 h): 40%; IL-6 Reduction (IL-6; 1 μM compound): 45%"
"COc1cc(C(O)c2cccs2)cc(OC)c1-c1cc(Cl)cc(Cl)c1 (stereo not shown) [Compound 16, (3′,5′-dichloro-2,6-dimethoxybiphenyl-4-yl)(thiophen-2-yl)methanol]",3700,> 1000,0.27,"inhibition at 4 µM (NF-κB; 4 μM compound, A549, 10 ng/mL TNF-α, 18 hours): 45%; CXCL-8 Reduction (CXCL-8): 80%; IL-6 Reduction (IL-6; 4 μM compound): 90%"
